Laboratory results: patent US8686044B2, “Amide derivative, pest control agent containing the amide derivative, and use of the amide derivative” (Mitsui Chemicals Agro, Inc., priority 2008, dated 2014)

Tests used:
Format in all cases: in vivo
Spodoptera litura = test: Pesticidal test against Spodoptera litura (cabbage leaf dip); conditions: foliar, 144 h, 2-stage larvae, examined after 6 days, 25° C., read-out: pesticidal rate; for pest or weed control at 1 ppm: concentration 1 ppm; for pest or weed control at 10 ppm: concentration 10 ppm
Protocol: (§1) Pesticidal Test against Spodoptera litura A piece of a cabbage leaf was immersed for 30 seconds in a chemical solution in which a test compound had been prepared at a predetermined concentration, and air-dried, and then put into a 7 cm polyethylene cup having a filter paper laid on the bottom thereof, and 2-stage larvae of Spodoptera litura were released. They were left to stand in a thermostatic chamber at 25° C., and the numbers of the living pests and the dead pests were examined after 6 days. The test was carried out with five larvae per group in two replicates. Further, the following compound (A) disclosed in the pamphlet of International Publication WO 2005/073165 was used as a comparative compound.

Plutella xylostella = test: Pesticidal test against Plutella xylostella (cabbage leaf dip); conditions: foliar, 144 h, 2-stage larvae, examined after 6 days, 25° C., read-out: pesticidal rate; for pest or weed control at 1 ppm: concentration 1 ppm; for pest or weed control at 10 ppm: concentration 10 ppm
Protocol: as §1, with “Plutella xylostella” for “Spodoptera litura”, “above” for “following”, “(A)” for “(A) disclosed in the pamphlet of International Publication WO 2005/073165”

Laodelphax striatellus = test: Pesticidal test against Laodelphax striatellus (rice seedling spray); conditions: 144 h, concentration 100 ppm, 3-stage larvae, examined after 6 days, 25° C., read-out: pesticidal rate
Protocol: Pesticidal Test against Laodelphax striatellus
2.5 ml of an acetone solution in which a test compound had been prepared at a predetermined concentration was sprayed on rice seedlings, air-dried, and then put into a glass tube having a diameter of 3 cm and a height of 13 cm, having water therein, and 3-stage larvae of Laodelphax striatellus were released and the tube was capped. They were left to stand in a thermostatic chamber at 25° C., and the numbers of the living pests and the dead pests were examined after 6 days. The test was carried out with ten larvae per group in two replicates.

SMILES | pest or weed control at 1 ppm (Spodoptera litura) [%] | pest or weed control at 1 ppm (Plutella xylostella) [%] | pest or weed control at 100 ppm (Laodelphax striatellus) [%] | pest or weed control at 10 ppm (Spodoptera litura) [%] | pest or weed control at 10 ppm (Plutella xylostella) [%]
N#Cc1ccc(C(=O)Nc2c(Br)cc(C(F)(C(F)(F)F)C(F)(F)F)cc2C(F)(F)F)cc1NC(=O)c1ccccc1 [1-627, 3-benzamide-N-(2-bromo-4-(perfluoropropan-2-yl)-6-(trifluoromethyl)phenyl)-4-cyanobenzamide] | ≥ 70 | ≥ 70 | ≥ 70 |  | 
O=C(Nc1c(I)cc(C(F)(C(F)(F)F)C(F)(F)F)cc1C(F)(F)F)c1cccc(NC(=O)c2cccnc2Br)c1 [6-461] | ≥ 70 | ≥ 70 | ≥ 70 |  | 
CN(C(=O)c1ccc(C#N)nc1)c1cccc(C(=O)Nc2c(Br)cc(C(F)(C(F)(F)F)C(F)(F)F)cc2C(F)(F)F)c1 [7-316] |  |  | ≥ 70 | ≥ 70 | ≥ 70
CN(C(=O)c1ccccc1F)c1cccc(C(=O)Nc2c(Br)cc(C(F)(C(F)(F)F)C(F)(F)C(F)(F)F)cc2Br)c1F (centres unmarked) [7-1183] | ≥ 70 | ≥ 70 | ≥ 70 |  | 
O=C(Nc1cccc(C(=O)Nc2c(I)cc(C(F)(C(F)(F)F)C(F)(F)C(F)(F)F)cc2I)c1F)c1cccc(F)c1 (centres unmarked) [6-1340] | ≥ 70 | ≥ 70 | ≥ 70 |  | 
N#Cc1ccc(C(=O)Nc2cccc(C(=O)Nc3c(I)cc(C(F)(C(F)(F)F)C(F)(F)F)cc3C(F)(F)F)c2)cc1 [6-445] | ≥ 70 | ≥ 70 | ≥ 70 |  | 
CN(C(=O)c1c(F)cccc1F)c1cccc(C(=O)Nc2c(Br)cc(C(F)(C(F)(F)F)C(F)(F)C(F)(F)F)cc2Br)c1 (centres unmarked) [7-47] | ≥ 70 | ≥ 70 | ≥ 70 |  | 
O=C(Nc1c(I)cc(C(F)(C(F)(F)F)C(F)(F)F)cc1C(F)(F)F)c1cccc(NC(=O)c2ccccc2F)c1 [6-425] | ≥ 70 | ≥ 70 | ≥ 70 |  | 
CN(C(=O)c1cccnc1Cl)c1cccc(C(=O)Nc2c(Br)cc(C(F)(C(F)(F)F)C(F)(F)F)cc2C(F)(F)F)c1 [7-304] | ≥ 70 | ≥ 70 | ≥ 70 |  | 
O=C(Nc1cccc(C(=O)Nc2c(Br)cc(C(F)(C(F)(F)F)C(F)(F)F)cc2C(F)(F)F)c1)c1ccccc1 [6-268] | ≥ 70 | ≥ 70 | ≥ 70 |  | 
N#Cc1cccc(C(=O)Nc2cccc(C(=O)Nc3c(Br)cc(C(F)(C(F)(F)F)C(F)(F)C(F)(F)F)cc3Br)c2)c1 (centres unmarked) [6-45] | ≥ 70 | ≥ 70 | ≥ 70 |  | 
O=C(Nc1cccc(C(=O)Nc2c(Br)cc(C(F)(C(F)(F)F)C(F)(F)C(F)(F)F)cc2C(F)(F)F)c1F)c1ccccc1F (centres unmarked) [6-1653] | ≥ 70 | ≥ 70 | ≥ 70 |  | 
CN(C(=O)c1c(F)cccc1F)c1cccc(C(=O)Nc2c(Br)cc(C(F)(C(F)(F)F)C(F)(F)C(F)(F)F)cc2Br)c1F (centres unmarked) [7-1204] | ≥ 70 | ≥ 70 | ≥ 70 |  | 
CN(C(=O)c1cccnc1Cl)c1cccc(C(=O)Nc2c(C(F)(F)F)cc(C(F)(C(F)(F)F)C(F)(F)F)cc2C(F)(F)F)c1 [7-840] | ≥ 70 | ≥ 70 | ≥ 70 |  | 
CN(C(=O)c1cccc(F)c1)c1cccc(C(=O)Nc2c(I)cc(C(F)(C(F)(F)F)C(F)(F)F)cc2C(F)(F)F)c1 [7-426] | ≥ 70 | ≥ 70 | ≥ 70 |  | 
O=C(Nc1cccc(C(=O)Nc2c(Br)cc(C(F)(C(F)(F)F)C(F)(F)C(F)(F)F)cc2Br)c1)c1ccc(F)cc1 (centres unmarked) [6-5906] | ≥ 70 | ≥ 70 | ≥ 70 |  | 
CN(C(=O)c1ccc(Cl)nc1)c1cccc(C(=O)Nc2c(Br)cc(C(F)(C(F)(F)F)C(F)(F)F)cc2Br)c1F [7-1147] | ≥ 70 | ≥ 70 | ≥ 70 |  | 
N#Cc1ccc(C(=O)Nc2cccc(C(=O)Nc3c(Br)cc(C(F)(C(F)(F)F)C(F)(F)F)cc3OC(F)(F)F)c2F)cc1 [6-5909] | ≥ 70 | ≥ 70 | ≥ 70 |  | 
O=C(Nc1cccc(C(=O)Nc2c(I)cc(C(F)(C(F)(F)F)C(F)(F)F)cc2I)c1F)c1ccccc1F [6-1261] | ≥ 70 | ≥ 70 | ≥ 70 |  | 

SMILES | pest or weed control at 1 ppm (Spodoptera litura) [%] | pest or weed control at 1 ppm (Plutella xylostella) [%] | pest or weed control at 100 ppm (Laodelphax striatellus) [%] | pest or weed control at 10 ppm (Spodoptera litura) [%] | pest or weed control at 10 ppm (Plutella xylostella) [%]
N#Cc1cccc(C(=O)Nc2cccc(C(=O)Nc3c(I)cc(C(F)(C(F)(F)F)C(F)(F)F)cc3C(F)(F)F)c2)c1 [6-444] | ≥ 70 | ≥ 70 | ≥ 70 |  | 
O=C(Nc1cccc(C(=O)Nc2c(I)cc(C(F)(C(F)(F)F)C(F)(F)C(F)(F)F)cc2I)c1)c1ccc(F)cc1 (centres unmarked) [6-5904] | ≥ 70 | ≥ 70 | ≥ 70 |  | 
O=C(Nc1c(Br)cc(C(F)(C(F)(F)F)C(F)(F)F)cc1C(F)(F)F)c1ccc(F)c(NC(=O)c2cccnc2Cl)c1 [6-3384] | ≥ 70 | ≥ 70 | ≥ 70 |  | 
CN(C(=O)c1ccccc1F)c1nc(C(=O)Nc2c(Br)cc(C(F)(C(F)(F)F)C(F)(F)F)cc2C(F)(F)F)cs1 [27-628, N-(2-bromo-4-(perfluoropropan-2-yl)-6-(trifluoromethyl)phenyl)-2-(2-fluoro-N-methylbenzamide)thiazole-4-carboxamide] |  |  |  | ≥ 70 | ≥ 70
COC(=O)c1cc(C#N)cc(C(=O)N(C)c2cccc(C(=O)Nc3c(Br)cc(C(F)(C(F)(F)F)C(F)(F)F)cc3C(F)(F)F)c2F)c1 [7-5910] | ≥ 70 | ≥ 70 |  |  | 
CN(C(=O)c1ccccc1F)c1cccc(C(=O)Nc2c(Br)cc(C(F)(C(F)(F)F)C(F)(F)F)cc2C(F)(F)F)c1 [7-269] | ≥ 70 |  |  |  | ≥ 70
CN(C(=O)c1ccccc1)c1cccc(C(=O)Nc2c(Br)cc(C(F)(C(F)(F)F)C(F)(F)C(F)(F)F)cc2Br)c1 (centres unmarked) [7-38] | ≥ 70 | ≥ 70 |  |  | 
N#Cc1cccc(C(=O)Nc2cccc(C(=O)Nc3c(Br)cc(C(F)(C(F)(F)F)C(F)(F)F)cc3C(F)(F)F)c2)c1 [6-288] | ≥ 70 | ≥ 70 |  |  | 
CN(C(=O)c1c(F)cccc1F)c1cccc(C(=O)Nc2c(Br)cc(C(F)(C(F)(F)F)C(F)(F)F)cc2C(F)(F)F)c1 [7-290] | ≥ 70 | ≥ 70 |  |  | 
CN(C(=O)c1ccccc1)c1cccc(C(=O)Nc2c(Br)cc(C(F)(F)C(F)(F)F)cc2C(F)(F)F)c1 [7-5911] |  |  |  | ≥ 70 | ≥ 70
N#Cc1ccc(C(=O)Nc2cccc(C(=O)Nc3c(Br)cc(C(F)(C(F)(F)F)C(F)(F)F)cc3C(F)(F)F)c2)cc1 [6-289] | ≥ 70 | ≥ 70 |  |  | 
O=C(Nc1cccc(C(=O)Nc2c(I)cc(C(F)(C(F)(F)F)C(F)(F)C(F)(F)F)cc2C(F)(F)F)c1)c1ccc(Cl)nc1 (centres unmarked) [6-545] | ≥ 70 | ≥ 70 |  |  | 
CN(C(=O)c1c(F)cccc1F)c1cccc(C(=O)Nc2c(I)cc(C(F)(C(F)(F)F)C(F)(F)C(F)(F)F)cc2I)c1 (centres unmarked) [7-80] | ≥ 70 | ≥ 70 |  |  | 
CN(C(=O)c1ccccc1F)c1cccc(C(=O)Nc2c(I)cc(C(F)(C(F)(F)F)C(F)(F)C(F)(F)F)cc2I)c1 (centres unmarked) [7-72] | ≥ 70 | ≥ 70 |  |  | 
CN(C(=O)c1ccc(Cl)nc1)c1cccc(C(=O)Nc2c(Br)cc(C(F)(C(F)(F)F)C(F)(F)C(F)(F)F)cc2Br)c1 (centres unmarked) [7-60] | ≥ 70 | ≥ 70 |  |  | 
CN(C(=O)c1ccc(F)cc1)c1cccc(C(=O)Nc2c(Br)cc(C(F)(C(F)(F)F)C(F)(F)F)cc2C(F)(F)F)c1 [7-271] | ≥ 70 | ≥ 70 |  |  | 
CN(C(=O)c1ccc(C#N)nc1)c1cc(C(=O)Nc2c(Cl)cc(C(F)(C(F)(F)F)C(F)(F)F)cc2C(F)(F)F)ccc1C#N [2-518] |  |  |  | ≥ 70 | ≥ 70
CS(=O)(=O)c1ccc(C(=O)Nc2cccc(C(=O)Nc3c(I)cc(C(F)(C(F)(F)F)C(F)(F)F)cc3C(F)(F)F)c2)c(Cl)c1 [6-5912] | ≥ 70 | ≥ 70 |  |  | 
CN(C(=O)c1ccc(Cl)nc1)c1cccc(C(=O)Nc2c(I)cc(C(F)(C(F)(F)F)C(F)(F)C(F)(F)F)cc2I)c1 (centres unmarked) [7-93] | ≥ 70 | ≥ 70 |  |  | 
